From patent US20090209528A1, “SUBSTITUTED TETRAHYDROISOQUINOLINE COMPOUND, THEIR PREPARATION AND USE IN MEDICAMENTS” (LABORATORIOS DEL DR. ESTEVE S.A., priority 2006, published 2009)
Structures can show the parent of a compound that is named as a salt.

Target: T1, 5HT6-human recombinant receptor (Homo sapiens, UniProt P50406)
T1 construct: purchased Receptor Biology; host or cells: HEK-293 cell membranes
Test: Binding to serotonin receptor 5-HT6 ([3H]-LSD displacement)
Settings: radioligand [3H]-LSD 2.7 nM; for inhibition at 0.01 µM / inhibition at 0.1 µM: 1 h; for Ki: membranes of HEK-293 cells expressing the receptor, 60 min, 37° C.
Description: Cell membranes of HEK-293 cells expressing the 5HT6-human recombinant receptor were supplied by Receptor Biology. In said membranes the receptor concentration is 2.18 pmol/mg protein and the protein concentration is 9.17 mg/ml. The experimental protocol follows the method of B. L. Roth et al. [B. L. Roth, S. C. Craigo, M. S. Choudhary, A. Uluer, F. J. Monsma, Y. Shen, H. Y. Meltzer, D. R. Sibley: Binding of Typical and Atypical Antipsychotic Agents to 5-Hydroxytryptamine-6 and Hydroxytryptamine-7 Receptors. The Journal of Pharmacology and Experimental Therapeutics, 1994, 268, 1403] with the following slight changes. The respective part of the literature description is hereby incorporated by reference and forms part of the disclosure.
The commercial membrane is diluted (1:40 dilution) with the binding buffer: 50 mM Tris-HCl, 10 mM MgCl2, 0.5 mM EDTA (pH 7.4). The radioligand used is [^3H]-LSD at a concentration of 2.7 nM with a final volume of 200 μl. Incubation is initiated by adding 100 μl of membrane suspension, (≈22.9 μg membrane protein), and is prolonged for 60 minutes at a temperature of 37° C. The incubation is ended by fast filtration in a Brandel Cell Harvester through fiber glass filters made by Schleicher & Schuell GF 3362 pretreated with a solution of polyethylenimine at 0.5%. The filters are washed three times with three milliliters of buffer Tris-HCl 50 mM pH 7.4. The filters are transferred to flasks and 5 ml of Ecoscint H liquid scintillation cocktail are added to each flask. The flasks are allowed to reach equilibrium for several hours before counting with a Wallac Winspectral 1414 scintillation counter. Non-specific binding is determined in the presence of 100 μM of serotonin. Tests were made in triplicate. The inhibition constants (Ki, nM) were calculated by non-linear regression analysis using the program EBDA/LIGAND described in Munson and Rodbard, Analytical Biochemistry, 1980, 107, 220, the respective part of which is hereby incorporated by reference and forms part of the disclosure.

T1 sequence (P50406 whole entry): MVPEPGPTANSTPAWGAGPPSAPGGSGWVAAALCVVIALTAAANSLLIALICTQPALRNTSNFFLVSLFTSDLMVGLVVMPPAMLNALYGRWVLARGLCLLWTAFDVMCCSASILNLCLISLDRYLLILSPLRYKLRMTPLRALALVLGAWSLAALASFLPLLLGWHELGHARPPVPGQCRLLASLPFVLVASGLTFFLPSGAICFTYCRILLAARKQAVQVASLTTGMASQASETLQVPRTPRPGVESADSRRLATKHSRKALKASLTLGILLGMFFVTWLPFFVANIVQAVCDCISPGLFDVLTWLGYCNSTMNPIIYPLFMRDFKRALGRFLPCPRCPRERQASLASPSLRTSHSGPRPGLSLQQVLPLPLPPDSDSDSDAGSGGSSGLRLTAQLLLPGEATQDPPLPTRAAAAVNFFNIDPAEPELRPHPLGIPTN

SMILES | inhibition at 0.01 µM (compound at 10 nM) [%] | inhibition at 0.1 µM (compound at 100 nM) [%] | Ki [nM] | Binding % [10 nM] (compound at 10 nM) [%] | Binding % [100 nM] (compound at 100 nM) [%]
Cc1c(S(=O)(=O)Nc2ccc3c(c2)CNCC3)sc2ccc(Cl)cc12 [Example 60, 5-Chloro-3-methyl-benzo[b]thiophene-2-sulfonic acid (1,2,3,4-tetrahydro-isoquinolin-7-yl)-amide hydrochloride] | 44.8 | 65.1 | 49.4 ± 8.2 | – | –
Cc1ccc2nsnc2c1S(=O)(=O)Nc1ccc2c(c1)CNCC2 [Example 76, 5-Methylbenzo[1,2,5] thiadiazole-4-sulfonic acid (1,2,3,4-tetrahydro-isoquinolin-7-yl)-amide hydrochloride] | 73.1 | 83.2 | 19.2 ± 2.4 | – | –
O=S(=O)(Nc1ccc2c(c1)CNCC2)c1cccc2c(Cl)cccc12 [Example 154, 5-Chloro-naphthalene-1-sulfonic acid (1,2,3,4-tetrahydro-isoquinolin-7-yl)-amide Hydrochloride] | 65.7 | 85.1 | 39.7 ± 7.4 | – | –
CN(c1ccc2c(c1)CC[N+](C)(C)C2)S(=O)(=O)c1cccc2ccccc12 [Example 2, 2,2-Dimethyl-6-[methyl-(naphthalene-1-sulfonyl)-amino]-1,2,3,4-tetrahydro isoquinolinium iodide] | 17 | 19.6 | – | – | –
Cc1c(S(=O)(=O)Nc2ccc3c(c2)CCN(C)C3)sc2ccc(Cl)cc12 [Example 5, 5-Chloro-3-methyl-benzo[b]thiophene-2-sulfonic acid (2-methyl-1,2,3,4-tetrahydro-isoquinolin-6-yl)-amide hydrochloride] | 25.9 | 76.3 | 79.8 | – | –
Cc1c(S(=O)(=O)Nc2ccc3c(c2)CCNC3)sc2ccc(Cl)cc12 [Example 4, 5-Chloro-3-methyl-benzo[b]thiophene-2-sulfonic acid (1,2,3,4-tetrahydro-isoqui-nolin-6-yl)-amide hydrochloride] | 27.3 | 71.1 | – | – | –
CCc1ccc(OC)c(S(=O)(=O)Nc2ccc3c(c2)CCNC3)c1 [Example 35, 5-Ethyl-2-methoxy-N-(1,2,3,4-tetrahydro-isoquinolin-6-yl)-benzene sulfonamide hydrochloride] | 48.8 | 81.6 | 14.2 ± 1.5 | – | –
CC(C)(C)OC(=O)N1CCc2cc(NS(=O)(=O)c3cccnc3)ccc2C1 [Example 18, 6-(Pyridine-3-sulfonylamino)-3,4-dihydro-1H-isoquinoline-2-carboxylic acid tert-butyl ester] | -0.8 | 6.8 | – | – | –
CN1CCc2cc(NS(=O)(=O)c3cccc4ccccc34)ccc2C1 [Example 3, Naphthalene-1-sulfonic acid (2-methyl-1,2,3,4-tetrahydro-isoquinolin-6-yl)-amide hydrochloride] | 3.9 | 18.2 | – | – | –
Cc1ccc(S(=O)(=O)Nc2ccc3c(c2)CCN(C(=O)OC(C)(C)C)C3)c2ccccc12 [Example 15, 6-(4-Methyl-naphthalene-1-sulfonylamino)-3,4-dihydro-1H-isoquinoline-2-carboxylic acid tert-butyl ester] | -5 | 8.2 | – | – | –
Cc1c(S(=O)(=O)Nc2ccc3c(c2)CCN(C(=O)OC(C)(C)C)C3)sc2ccc(Cl)cc12 [Example 14, 6-(5-Chloro-3-methyl-benzo[b]thiophene-2-sulfonylamino)-3,4-dihydro-1H-isoquinoline-2-carboxylic acid tert-butyl ester] | -7.3 | -3 | – | – | –
Cc1c(S(=O)(=O)Nc2ccc3c(c2)CNCC3)sc2ccc(F)cc12 [Example 64, 5-Fluoro-3-methyl-benzo[b]thiophene-2-sulfonic acid (1,2,3,4-tetrahydro-isoquinolin-7-yl)-amide hydrochloride] | 41.9 | 66.9 | 55.8 ± 24.1 | – | –
COc1ccc(C)cc1S(=O)(=O)Nc1ccc2c(c1)CCN(C(=O)OC(C)(C)C)C2 [Example 17, 6-(2-Methoxy-5-methyl-benzenesulfonylamino)-3,4-dihydro-1H-isoquinoline-2-carboxylic acid tert-butyl ester] | -1.3 | -2 | – | – | –

Next, values leading:

inhibition at 0.01 µM (compound at 10 nM) [%] | inhibition at 0.1 µM (compound at 100 nM) [%] | Ki [nM] | Binding % [10 nM] (compound at 10 nM) [%] | Binding % [100 nM] (compound at 100 nM) [%] | SMILES
85.8 | 94.6 | 1.3 ± 0.12 | – | – | O=S(=O)(Nc1ccc2c(c1)CCNC2)c1c(Cl)nc2sccn12 [Example 10, 6-Chloro-imidazo[2,1-b] thiazole-5-sulfonic acid (1,2,3,4,- tetrahydro-isoquinolin-6-yl)-amide hydrochloride]
82.3 | 84.9 | 3.8 ± 1.2 | – | – | Cc1ccc(S(=O)(=O)Nc2ccc3c(c2)CNCC3)c2ccccc12 [Example 55, 4-Methyl-naphthalene-1-sulfonic acid (1,2,3,4-tetrahydro-isoquinolin-7-yl)-amide hydrochloride]
77.5 | 85.8 | 2.1 | – | – | O=S(=O)(Nc1ccc2c(c1)CNCC2)c1csc2ccccc12 [Example 78, Benzo[b]thiophene-3-sulfonic acid (1,2,3,4-tetrahydro-isoquinolin-7-yl)-amide hydrochloride]
– | – | 8.7 ± 0.4 | 52.9 | 88.2 | O=S(=O)(Nc1ccc2c(c1)CCNC2)c1ccc2ccccc2c1 [Example 153, Naphthalene-2-sulfonic acid (1,2,3,4-tetrahydro-isoquinolin-6-yl)-amide]
79.7 | 90.8 | 12.3 ± 6 | – | – | O=S(=O)(Nc1ccc2c(c1)CCNC2)c1ccccc1-c1ccccc1 [Example 22, Biphenyl-2-sulfonic acid (1,2,3,4-tetrahydro-isoquinolin-6-yl)-amide hydrochloride]
60.1 | 86.5 | 9.2 ± 1.2 | – | – | CN1CCc2cc(NS(=O)(=O)c3ccc4ccccc4c3)ccc2C1 [Example 9, Naphthalene-2-sulfonic acid (2-methyl-1,2,3,4-tetrahydro-isoquinolin-6-yl)-amide hydrochloride]
55.4 | 82.8 | 3.8 ± 1 | – | – | CN1CCc2ccc(NS(=O)(=O)c3c(Cl)nc4sccn34)cc2C1 [Example 53, 6-Chloro-imidazo[2,1-b]thiazole-5-sulfonic acid (2-methyl-1,2,3,4-tetrahydro-isoquinolin-7-yl)-amide hydrochloride]
78.6 | 85.5 | 3.2 ± 0.4 | – | – | O=S(=O)(Nc1ccc2c(c1)CNCC2)c1cccc2ccccc12 [Example 61, Naphthalene-1-sulfonic acid (1,2,3,4-tetrahydro-isoquinolin-7-yl)-amide hydrochloride]
72.3 | 85.5 | 5.7 | – | – | O=S(=O)(Nc1ccc2c(c1)CCNC2)c1ccc(Cl)c2ccccc12 [Example 31, 4-Chloro-naphthalene-1-sulfonic acid (1,2,3,4-tetrahydro-isoquinolin-6-yl)-amide hydrochloride]
81 | 91.9 | 10.7 ± 4.8 | – | – | O=S(=O)(Nc1ccc2c(c1)CNCC2)c1c(Cl)nc2sccn12 [Example 54, 6-Chloro-imidazo[2,1-b]thiazole-5-sulfonic acid (1,2,3,4-tetrahydro-iso-quinolin-7-yl)-amide hydrochloride]
86.8 | 92.8 | 10.3 | – | – | Cc1ccc(S(=O)(=O)Nc2ccc3c(c2)CN(C)CC3)c2ccccc12 [Example 56, 4-Methyl-naphthalene-1-sulfonic acid (2-methyl-1,2,3,4-tetrahydro-isoqui-nolin-7-yl)-amide hydrochloride]
63.2 | 85.2 | 7.8 ± 0.1 | – | – | O=S(=O)(Nc1ccc2c(c1)CCNC2)c1ccc(F)c2ccccc12 [Example 30, 4-Fluoro-naphthalene-1-sulfonic acid (1,2,3,4-tetrahydro-isoquinolin-6-yl)-amide hydrochloride]
88 | 89.6 | 5.3 ± 0.4 | – | – | O=S(=O)(Nc1ccc2c(c1)CCNC2)c1csc2ccccc12 [Example 29, Benzo[b]thiophene-3-sulfonic acid (1,2,3,4-tetrahydro-isoquinolin-6-yl)-amide hydrochloride]
